According to ChEMBL document CHEMBL3608235, “Pyrroloaryls and pyrroloheteroaryls: Inhibitors of the HIV fusion/attachment, reverse transcriptase and integrase” (Bioorg Med Chem, 2015):
pEC50, pIC50: −log10 of the molar value. ≈ marks a conversion by molar mass, not a printed value. Each block holds one molecule with its values, some of them ahead of it.

Columns and labels:
[1] = tested on: Human immunodeficiency virus 2; assay: Antiviral activity against HIV2 ROD; format: functional, organism-based; conditions: Human immunodeficiency virus 2, ISOLATE ROD
[2] = tested on: Human immunodeficiency virus 1; assay: Antiviral activity against HIV1 3B; format: functional, organism-based; conditions: Human immunodeficiency virus 1, 3B
[3] = tested on: Human immunodeficiency virus; assay: Antiviral activity against HIV expressing raltegravir-resistant integrase mutants; format: functional, organism-based; conditions: Human immunodeficiency virus 1
[4] = tested on: Human immunodeficiency virus 1; assay: Antiviral activity against HIV1 SF162; format: functional, organism-based; conditions: Human immunodeficiency virus 1, SF162
[5] = tested on: Human immunodeficiency virus 1; assay: Antiviral activity against HIV1 TLAV; format: functional, organism-based; conditions: Human immunodeficiency virus 1, TLAV
[6] = tested on: Human immunodeficiency virus 1; assay: Antiviral activity against HIV1 NL4-3; format: functional, organism-based; conditions: Human immunodeficiency virus 1, NL4-3
[7] = tested on: Human immunodeficiency virus 2; assay: Antiviral activity against HIV2 LAI; format: functional, organism-based; conditions: Human immunodeficiency virus 2, LAI
[8] = tested on: Human immunodeficiency virus 1; assay: Antiviral activity against HIV1 BAL; format: functional, organism-based; conditions: Human immunodeficiency virus 1, BAL
[9] = tested on: Human immunodeficiency virus 1; assay: Antiviral activity against HIV1 JRFL; format: functional, organism-based; conditions: Human immunodeficiency virus 1, JRFL
[10] = tested on: Human immunodeficiency virus 1; assay: Antiviral activity against HIV1 SF2; format: functional, organism-based; conditions: Human immunodeficiency virus 1, SF2
[11] = tested on: Human immunodeficiency virus; assay: Antiviral activity against HIV; format: functional, organism-based; conditions: Human immunodeficiency virus 1
[12] = Inhibition of HIV1 LTR-mediated transcription assessed as drug level causing 50% inhibition of protein/RNA complex formation incubated for 15 mins; parameters: species or system Human immunodeficiency virus
[13] = Cytotoxicity against human C8166 cells; format: cell-based; conditions: human, C8166 cells
[14] = tested on: Human immunodeficiency virus 1; assay: Antiviral activity against HIV1 infected in human C8166 cells assessed as inhibition of virus replication; format: functional, organism-based; conditions: Human immunodeficiency virus 1, C8166
[15] = Cytotoxicity against human MT2 cells; format: cell-based; conditions: read-out: TC50 (the source's name)
[16] = tested on: Human immunodeficiency virus 1; assay: Antiviral activity against HIV1 3B infected in human MT2 cells assessed as reduction in virus-induced cell death; format: functional; conditions: Human immunodeficiency virus 1, 3B
[17] = tested on: Human immunodeficiency virus 1; assay: Antiviral activity against HIV1; format: functional, organism-based
[18] = tested on: Human immunodeficiency virus 1; assay: Antiviral activity against HIV1 3B infected in human primary lymphocytes assessed as reduction in p24 production incubated for 4 days by ELISA method; format: functional, organism-based; conditions: Human immunodeficiency virus 1, 3B, 96 h
[19] = tested on: PBL; assay: Cytotoxicity against human PBL cells incubated for 4 days by MTT assay; format: cell-based; conditions: 96 h
[20] = tested on: Human immunodeficiency virus; assay: Antiviral activity against HIV infected in human MT4 cells assessed as reduction in virus-induced cytopathogenicity; format: functional, organism-based; conditions: Human immunodeficiency virus 1, MT4
[21] = tested on: Human immunodeficiency virus; assay: Antiviral activity against HIV by XTT assay; format: functional, organism-based; conditions: Human immunodeficiency virus 1
[22] = tested on: Human immunodeficiency virus 1; assay: Antiviral activity against HIV1 infected in human MT4 cells; format: functional, organism-based; conditions: Human immunodeficiency virus 1, MT4

- pEC50 [1]: < 3.82
- pEC50 [2]: 5.05
SMILES: O=C1N(Cc2ccccc2Cl)c2cccn2S(=O)(=O)N1Cc1cccc(Cl)c1

SMILES: CC1=C2C(=O)N(Cc3ccc(F)c(Cl)c3)C(=O)C2=C(O)C(=O)C1c1ccccc1 (stereo not drawn)
- pIC50 [3]: 5.19

- pEC50 [4]: 6.07
- pEC50 [5]: 6.07
- pEC50 [6]: 6.07
- pEC50 [7]: 6.07
- pEC50 [8]: 6.07
- pEC50 [9]: 6.07
- pEC50 [10]: 6.07
SMILES: O=C(C(=O)N1CCN(C(=O)c2ccccc2)CC1)c1c[nH]c2ccccc12

- pIC50 [11]: 4.70
SMILES: CSc1c(C#N)c2c(N)ncnc2n1COC(CO)CO

- pEC50 [1]: < 3.82
- pEC50 [2]: 4.96
SMILES: O=C1N(Cc2cccc(Cl)c2)c2cccn2S(=O)(=O)N1Cc1cccc(F)c1

SMILES: COc1cc2c(cc1OCCC(=O)Nc1cc(C(=O)Nc3cc(C(=O)Nc4cc(C(=O)Nc5cc(C(=O)NCCC(=N)N)n(C)c5)n(C)c4)n(C)c3)n(C)c1)N=C[C@@H]1CCCN1C2=O
- AC50 [12]: 10 µM

- pIC50 [11]: 5.52
SMILES: N#Cc1cn(COC(CO)CO)c2nc(N)nc(O)c12

- pEC50 [14]: 5.03
SMILES: CCOC(=O)c1ncc(O)c2c1C(=O)N(CCc1c[nH]c3ccccc13)C2=O
- CC50 [13]: 26.7 µM

SMILES: O=C1c2ccccc2C(=O)N1CCCCCN1C(=O)[C@H](Cc2ccc(O)cc2)n2cccc2-c2ccccc21
- CC50 [15]: > 50 µg/mL
- IC90 [16]: 2.6 µg/mL (≈ 5 µM)

- pEC50 [17]: 8.80
SMILES: C[C@@H]1CN(C(=O)c2ccccc2)CCN1C(=O)C(=O)c1c[nH]c2cccnc12

- pEC50 [18]: 4.85
SMILES: CN1C(=O)c2ccn(C)c2S(=O)(=O)c2ccccc21
- pEC50 [19]: < 3.44

- pEC50 [1]: < 3.82
- pEC50 [2]: 5.25
SMILES: N#Cc1ccccc1CN1C(=O)N(Cc2cccc(F)c2)S(=O)(=O)n2cccc21

- pEC50 [17]: 7.67
SMILES: C[C@@H]1CN(C(=O)c2ccccc2)CCN1C(=O)C(=O)c1c[nH]c2cnccc12

- pEC50 [1]: < 3.82
- pEC50 [2]: 5.14
SMILES: O=C1N(Cc2ccccc2Cl)c2cccn2S(=O)(=O)N1Cc1cccc(F)c1

- EC50 [20]: > 31 µg/mL
SMILES: COc1ccc(Nc2nc3ccccc3n3cccc23)cc1OC

- pEC50 [4]: 6.07
- pEC50 [5]: 6.07
- pEC50 [6]: 6.07
- pEC50 [7]: 6.07
- pEC50 [8]: 6.07
- pEC50 [9]: 6.07
- pEC50 [10]: 6.07
SMILES: O=C(C(=O)N1CCN(C(=O)c2ccccc2)CC1)c1c[nH]c2cccc(F)c12

- pEC50 [14]: 5.04
SMILES: CCOC(=O)c1ncc(O)c2c1C(=O)N(CCc1ccc(OC)c(OC)c1)C2=O
- CC50 [13]: 33.5 µM

- pEC50 [18]: 6.07
SMILES: O=C(C[C@H]1C(=O)Nc2ccccc2C2CCCN21)OCc1ccccc1 (stereo partly drawn)
- pEC50 [19]: 4.54

SMILES: CCCCCCCCCCCC(=O)NC1=NN(C)c2ncnc3c2c1cn3[C@@H]1O[C@H](CO)[C@@H](O)[C@H]1O
- pIC50 [21]: < 4.00

- EC50 [20]: > 15 µg/mL
SMILES: O=C(O)c1ccc(Nc2nc3cc(C(F)(F)F)ccc3n3cccc23)cc1

- EC50 [20]: > 16 µg/mL
SMILES: COc1ccc(OCc2nc3ccccc3n3cccc23)cc1

SMILES: CN1C(=O)[C@H](Cc2ccc(O)cc2)n2cccc2-c2ccccc21
- IC90 [16]: > 0.29 µg/mL

SMILES: CCCCCCCCC(=O)NC1=NN(C)c2ncnc3c2c1cn3[C@@H]1O[C@H](CO)[C@@H](O)[C@H]1O
- pIC50 [21]: < 4.00

SMILES: O=Cc1ccc2n1[C@@H](Cc1ccccc1)C(=O)Nc1ccccc1-2
- IC90 [16]: > 0.29 µg/mL

SMILES: O=C1CC(CO)=C2C(=O)N(Cc3ccc(F)c(Cl)c3)C(=O)C2=C1O
- pIC50 [3]: 5.19

SMILES: COC(=O)CCC1=C2C(=O)N(Cc3ccc(F)c(Cl)c3)C(=O)C2=C(O)C(=O)C1C(C)C (stereo not drawn)
- pIC50 [3]: 5.15

SMILES: O=C1[C@H](Cc2ccc(O)cc2)n2cccc2-c2ccccc2N1CCc1ccc(O)cc1
- CC50 [15]: 10 µg/mL (≈ 23.6 µM)
- IC90 [16]: 0.8 µg/mL (≈ 1.88 µM)

- EC50 [20]: > 8 µg/mL
SMILES: O=C(O)c1ccc(OCc2nc3ccccc3n3cccc23)cc1

- pEC50 [14]: 5.51
SMILES: CCOC(=O)c1ncc(O)c2c1C(=O)N(CC(c1ccccc1)c1ccccc1)C2=O
- CC50 [13]: 25.2 µM

- pEC50 [17]: 8.77
SMILES: C[C@@H]1CN(C(=O)c2ccccc2)CCN1C(=O)C(=O)c1c[nH]c2ncccc12

SMILES: CCCC(=O)NC1=NN(C)c2ncnc3c2c1cn3[C@@H]1O[C@H](CO)[C@@H](O)[C@H]1O
- pIC50 [21]: 6.30

SMILES: CC1=C2C(=O)N(Cc3ccc(F)c(Cl)c3)C(=O)C2=C(O)C(=O)C1C (stereo not drawn)
- pIC50 [3]: 5.17

- EC50 [20]: > 27 µg/mL
SMILES: COc1ccc(Nc2nc3cc(C(F)(F)F)ccc3n3cccc23)cc1OC

SMILES: CCCCCCC(=O)NC1=NN(C)c2ncnc3c2c1cn3[C@@H]1O[C@H](CO)[C@@H](O)[C@H]1O
- pIC50 [21]: 7.46

- pIC50 [11]: 4.34
SMILES: N#Cc1cn(COCCO)c2ncnc(N)c12

- pEC50 [1]: < 3.82
- pEC50 [2]: 4.74
SMILES: O=C1N(Cc2ccccc2Cl)c2cccn2S(=O)(=O)N1Cc1cccc(Br)c1

SMILES: COc1cc2c(cc1OCCC(=O)Nc1cc(C(=O)Nc3cc(C(=O)Nc4cc(C(=O)NCCC(=N)N)n(C)c4)n(C)c3)n(C)c1)N=C[C@@H]1CCCN1C2=O
- AC50 [12]: 15 µM

- pEC50 [14]: 5.78
SMILES: CCOC(=O)c1ncc(O)c2c1C(=O)N(CCc1ccc(F)cc1)C2=O
- CC50 [13]: 13.2 µM

- EC50 [20]: > 39 µg/mL
SMILES: CCOC(=O)CCC(NC(=O)c1ccc(Nc2nc3cc(C(F)(F)F)ccc3n3cccc23)cc1)C(=O)OCC (stereo not drawn)

- pEC50 [18]: 4.80
SMILES: Cn1ccc2c1C(=O)Nc1ccccc1S2
- pEC50 [19]: < 3.36

SMILES: O=C(C[C@H]1C(=O)Nc2ccccc2-c2cccn21)OCc1ccccc1
- CC50 [15]: 10 µg/mL (≈ 28.9 µM)
- IC90 [16]: 0.29 µg/mL (≈ 0.837 µM)

- pEC50 [14]: 5.24
SMILES: O=C(NCc1ccc(F)cc1)c1ncc(O)c2c1C(=O)N(CCc1ccc(F)cc1)C2=O
- CC50 [13]: 30.8 µM

- pEC50 [22]: 3.92
SMILES: CCOC(=O)c1cc2c3cc(OC)ccc3c3ccc(N)cc3n2c1C

- pEC50 [14]: 5.63
SMILES: CCOC(=O)c1ncc(O)c2c1C(=O)N(CCc1ccc(C)cc1)C2=O
- CC50 [13]: 15.5 µM

- pEC50 [1]: < 3.82
- pEC50 [2]: 5.19
SMILES: N#Cc1cccc(CN2C(=O)N(Cc3ccccc3)S(=O)(=O)n3cccc32)c1

- pEC50 [22]: 4.00
SMILES: CCOC(=O)c1cc2c3ccccc3c3ccccc3n2c1C

- pEC50 [1]: < 3.82
- pEC50 [2]: 5.29
SMILES: N#Cc1ccccc1CN1C(=O)N(Cc2ccccc2)S(=O)(=O)n2cccc21

SMILES: CC(=O)OCC1=C2C(=O)N(Cc3ccc(F)c(Cl)c3)C(=O)C2=C(O)C(=O)C1
- pIC50 [3]: 4.91

- pEC50 [22]: 4.22
SMILES: CCOC(=O)c1cc2c3cccc(OC)c3c3c(N)cccc3n2c1C

- pEC50 [17]: 4.68
SMILES: CN1N=C(N)c2cn([C@H]3CC[C@@H](CO)O3)c3ncnc1c23

SMILES: CC(=O)OCC1=C2C(=O)N(Cc3ccc(F)c(Cl)c3)C(=O)C2=C(O)C(=O)C1C(C)C (stereo not drawn)
- pIC50 [3]: 4.81

SMILES: COc1cc2c(cc1OCCC(=O)Nc1cc(C(=O)Nc3cc(C(=O)NCCC(=N)N)n(C)c3)n(C)c1)N=C[C@@H]1CCCN1C2=O
- AC50 [12]: 20 µM
